In BindingDB's records for doi:10.1016/j.bmcl.2007.01.009 (Karo Bio, 2007) one finds EC50 data, which are given here for 1 compound.

SMILES strings stand for the structures.

The test has as its target T1, Thyroid hormone receptor alpha (Homo sapiens, UniProt P10827).
T1 sequence (P10827 whole entry): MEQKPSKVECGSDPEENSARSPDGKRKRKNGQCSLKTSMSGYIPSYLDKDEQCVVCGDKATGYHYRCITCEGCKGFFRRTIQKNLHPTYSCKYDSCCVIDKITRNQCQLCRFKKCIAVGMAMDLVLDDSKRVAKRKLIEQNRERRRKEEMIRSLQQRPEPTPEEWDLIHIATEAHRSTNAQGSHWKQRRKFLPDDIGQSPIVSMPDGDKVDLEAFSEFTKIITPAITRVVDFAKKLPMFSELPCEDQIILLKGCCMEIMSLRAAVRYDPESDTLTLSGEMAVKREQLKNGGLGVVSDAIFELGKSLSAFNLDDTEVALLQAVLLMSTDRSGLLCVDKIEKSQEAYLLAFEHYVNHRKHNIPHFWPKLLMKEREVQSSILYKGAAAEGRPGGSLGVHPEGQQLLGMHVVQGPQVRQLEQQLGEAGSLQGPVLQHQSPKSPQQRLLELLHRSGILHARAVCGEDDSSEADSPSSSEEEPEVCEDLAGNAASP
In words: TRalpha-Binding Assay and Thyroid Response Element (TRAFalpha1) Reporter Assay. To be noted: pH 7; 4 °C. From the text:
EC50 is the concentration of compound required to reach or inhibit (agonist or antagonist) 50% of T3-induced TRalpha-activation in CHOK1 cells stably transfected with hTRalpha using alkaline phosphatase reporter assay.

The EC50 is the midpoint of the concentration-response curve. Low readings indicate an effect from little substance, high ones a need for much substance. In turn, `O=C(O)CCc1cc(Br)c(OCc2cccc(Br)c2)c(Br)c1` [3-{3,5-dibromo-4-[(3-bromophenyl)methoxy]phenyl}propanoic acid] displayed an EC50 of 0.38 µM.
